In publication PMC11984905, “Chiral Switch of Gadopiclenol: New Standards in MRI Probes” (Advanced Science, 2025):

Key:
[1] = Biodistribution and in vivo dynamic T1-weighted MRI; set-up: species or system A/J healthy mice; details: 0.1 mmol Gd/kg i.v.
Procedure: Dynamic T 1‐weighted MRI on twelve A/J healthy mice was used to compare the biodistribution of ([Gd(ent‐L2)] and [Gd(BT‐DO3A)] (Gadovist), n = 6 animals each), administered at 0.1 mmol Gd/kg. The MRI monitored the distribution within abdominal tissues for up to 1 h post‐administration MRI images and the pharmacokinetic curves are shown in Figure 6 .
All the procedures and the experiments were conducted according to the national and international laws on experimental animal research (L.D. 26/2014; Directive 2010/63/EU) and under a specific Italian Ministerial Authorization (project research number 46/2015‐PR). Twelve A/J healthy mice (females, 6–7 weeks old, supplied by Envigo RMS S.r.l.) were housed in a controlled environment (22°C, 55% humidity, 15–20 air changes/hour, 12‐h light/dark cycle) with ad libitum access to VRF1 (P) certified pellets and filtered water. To minimize discomfort, the animals were socially housed with enrichment items. Veterinary care was available throughout the study to alleviate any potential pain or distress following procedures. […] The animals were randomly assigned to two experimental groups (n = 6 each, with sample size confirmed via GPower) and underwent to Magnetic Resonance Imaging (MRI) experiments performed using a BioSpec 47/30 preclinical scanner (Bruker Biospin, Ettlingen, Germany) operating at […] (i.e., at a proton Larmor frequency of 125 MHz) and equipped with two‐channel 35 mm RF volume coil. During MRI experiments, all the animals were anaesthetized with isoflurane gas (≈1%) in O2. Anaesthesia was maintained by adjustment of gas level as a function of breath rate. Before injection of each test article, T 1‐weighted spin echo sequences were acquired on the animal in order to check the position of the animal. A series of T 1‐weighted 3D gradient echoscans (repetition time = 50 ms, flip angle = 50°, echo time = 2.8 ms, number of averages = 2, matrix size (3D) = 192 × 192 × 8, field of view = 2.5 × 2.5 × 1.2 cm, acquisition time = 154 s) were then acquired before and after the intravenous administration of a 50 mM saline solution (0.9%) of [Gd(ent‐L2)] (n = 6 mice) and [Gd(BT‐DO3A)] (Gadovist, Bayer Schering, Germany) (n = 6 mice) at an injection rate of ≈2 mL/min through a catheter placed in the tail vein of the animal. Both [Gd(ent‐L2)] and [Gd(BT‐DO3A)] were administered at a dose of 0.1 mmol Gd/kg corresponding to an administration volume of 2 mL kg^−1. The kinetics of the Gd(III)‐complexes was followed up to 60 min post‐injection. After imaging was performed, the mouse was removed from the scanner and returned to the Animal Facility room. At the end of the study all animals were sacrificed by overdose of anaesthesia and cervical dislocation. Unblinded image analysis was performed by positioning the region of interest (ROIs) over liver, kidney, muscle, and blood vessel. ROIs positioning and signal quantification was performed by using a home‐developed plugin, running on Image J.^[ [51] ^]
Signal enhancement (Enh) was calculated using the formula: Enh = 100×(SignalpostCA ‐SignalpreCA)/SignalpreCA, where SignalpreCA and SignalpostCA denote the MR signal before and after administration of contrast agents, respectively. Data were presented as mean ± standard deviation (SD). The sample size (n = 6 per group) was determined a priori using GPower software to ensure adequate statistical power. The Levene's test was employed to assess the homogeneity of variances among groups. For comparisons where homogeneity of variance was confirmed, a one‐way ANalysis Of VAriance (ANOVA) was applied to test the null hypothesis that treatment groups originate from the same distribution. Post‐hoc pairwise multiple comparisons were performed using Tukey's method when significant differences were detected. Statistical analyses and data visualization were conducted using Mathematica (Wolfram, USA), while summary statistics (mean, SD, and standard error) were calculated using Microsoft Excel (USA). […]

[2] = Eu^3+ complex, 0.1 M Me4NCl, 25 °C, cited from earlier work

Row | SMILES | elimination pathway [1] | average maximum signal enhancement in the liver ([1]; 3 T, n = 6) | wash-in and wash-out kinetics ([1]; up to 1 h post-administration) | maximum signal enhancement in the blood compartment, times higher than that of [Gd(BT-DO3A)] ([1]; same dose, 3 T, significance level 0.1%) | decrease in signal enhancement in the blood compartment ([1]; within 30 min, 3 T) [%] | pGd (Eu^3+) ([2]; 1 µM metal, 10 µM L, pH 7.4) | logK GdL (Eu^3+) [2] | logKGdH2L (Eu^3+) [2] | logKGdH3L (Eu^3+) [2] | logKGdHL (Eu^3+) [2] | logK^c GdL (Eu^3+) ([2]; pH 7.4)
1 | O=C(CCC(C(=O)[O-])N1CCN(C(CCC(=O)NCC(O)CO)C(=O)[O-])Cc2cccc(n2)CN(C(CCC(=O)NCC(O)CO)C(=O)[O-])CC1)NCC(O)CO.[Gd+3] (stereo not drawn) [[Gd(ent‐L2)]] | renal elimination remains the primary pathway | ≈ 210% | rapid wash‐in and wash‐out | ≈ 2 times | ≥ 50 |  |  |  |  |  | 
2 | O=C(O)CCC(C(=O)O)N1CCN(C(CCC(=O)O)C(=O)O)Cc2cccc(n2)CN(C(CCC(=O)O)C(=O)O)CC1 (racemic) [rac‐L1, 2,2’,2’’-[3,6,9,15-tetraazabicyclo[9.3.1]pentadeca-1(15),11,13-triene-3,6,9-triyl]tripentanedioic acid] |  |  |  |  |  | 16.06 | 18.66 | 4.54 | 4.12 | 5.34 | 15.10
